Reference: PubChem BioAssay (NCI)
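Results reflect a 48-hour exposure of cells in 96-well plates to compound at five concentrations. TGI: total growth inhibition.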

How the values were obtained:
Assay in all cases: NCI tumour cell line growth inhibition, 48 h
[1] = system: BT-549 breast
[2] = system: COLO 205 colon
[3] = system: EKVX NSCLC
[4] = system: HCT-116 colon
[5] = system: HOP-92 NSCLC
[6] = system: HT29 colon
[7] = system: LOX IMVI melanoma
[8] = system: OVCAR-4 ovarian
[9] = system: PC-3 prostate
[10] = system: SF-295 CNS
[11] = system: SF-539 CNS
[12] = system: SK-MEL-28 melanoma
[13] = system: SK-OV-3 ovarian
[14] = system: SNB-19 CNS
[15] = system: SW-620 colon
[16] = system: T-47D breast
[17] = system: U251 CNS
[18] = system: UACC-257 melanoma
[19] = system: NCI-H460 lung
[20] = system: HCC-2998 colon

| Structure (SMILES) | TGI [1] [µM] | TGI [2] [µM] | TGI [3] [µM] | TGI [4] [µM] | TGI [5] [µM] | TGI [6] [µM] | TGI [7] [µM] | TGI [8] [µM] | TGI [9] [µM] | TGI [10] [µM] | TGI [11] [µM] | TGI [12] [µM] | TGI [13] [µM] | TGI [14] [µM] | TGI [15] [µM] | TGI [16] [µM] | TGI [17] [µM] | TGI [18] [µM] | TGI [19] [µM] | TGI [20] [µM] |
| --- | --- | --- | --- | --- | --- | --- | --- | --- | --- | --- | --- | --- | --- | --- | --- | --- | --- | --- | --- | --- |
| C=CCCCC1SC2=C(CC)CCCN2C1=O (stereo not given) | > 100 | > 100 | > 100 | > 100 | > 100 | > 100 | > 100 | > 100 | > 100 | > 100 | > 100 | > 100 | > 100 | > 100 | > 100 | > 100 | > 100 | 63.1 | – | – |
| COC(=O)Nc1nc2ccc(S(=O)(=O)n3nnc4ccccc43)cc2[nH]1 | 48.1 | > 100 | > 100 | > 100 | 35.8 | > 100 | > 100 | > 100 | > 100 | 90.7 | 24.4 | > 100 | 41.2 | > 100 | > 100 | > 100 | > 100 | 43.9 | > 100 | – |
| O=C(O)c1ccc(-c2nc3ccc(Cl)cc3[nH]2)cc1 | > 100 | > 100 | > 100 | – | > 100 | > 100 | – | – | > 100 | > 100 | > 100 | – | > 100 | > 100 | > 100 | > 100 | > 100 | – | – | > 100 |
| O=C1/C(=C/c2ccc(Cl)cc2)N=C(c2ccccc2)N1c1nc2ccccc2s1 | – | – | > 100 | > 100 | > 100 | > 100 | > 100 | > 100 | > 100 | > 100 | > 100 | > 100 | > 100 | – | > 100 | > 100 | > 100 | > 100 | > 100 | > 100 |
| Cc1ccc2nc(-c3ccc(-n4c(C)nc(=O)c(-c5ccc(F)cc5)c4C)cc3)sc2c1 | 29.9 | 20.5 | 30 | 29.4 | 36.9 | 30.1 | 53.6 | 56.6 | 25.1 | 33.1 | – | 50.7 | 29.3 | 29.5 | 57.2 | 17.2 | 30.7 | 30.1 | – | – |
| Cc1n[nH]c(=O)n1/N=C/c1cccs1 | > 100 | > 100 | > 100 | > 100 | – | > 100 | > 100 | > 100 | > 100 | > 100 | > 100 | > 100 | > 100 | > 100 | > 100 | > 100 | > 100 | > 100 | > 100 | > 100 |
| COc1ccc(N=C2C(=Nc3ccc(OC)cc3)N(S(=O)(=O)c3ccccc3)C(=S)N2c2ccccc2)cc1 | > 100 | > 100 | > 100 | – | > 100 | > 100 | – | – | > 100 | > 100 | > 100 | > 100 | > 100 | > 100 | > 100 | > 100 | > 100 | > 100 | > 100 | > 100 |
| CCOC(=O)C(C)(C(=O)OCC)/C(Cl)=C\Cl | – | > 100 | > 100 | > 100 | > 100 | > 100 | > 100 | > 100 | > 100 | > 100 | > 100 | > 100 | > 100 | > 100 | > 100 | > 100 | – | > 100 | > 100 | 0.988 |
| CC(=O)OC(C)c1cc2c(s1)C(=O)c1scc(C(C)OC(C)=O)c1C2=O (stereo not given) | 0.426 | 1 | 2.2 | 0.838 | 4.58 | 3.53 | > 100 | 0.583 | – | 0.323 | 0.36 | 0.378 | 4.33 | 0.454 | – | 2.1 | 1.66 | 0.463 | 0.344 | 1.23 |
| CCN(CC)CCCNc1nc(=O)[nH]c(C)c1C(=O)Nc1c2ccccc2nc2ccccc12 | – | 23.5 | 74.5 | 21.7 | 13.3 | 26.2 | 45.4 | 86.3 | > 100 | 27.3 | 41.8 | > 100 | 59 | 62.2 | > 100 | 73.5 | > 100 | 54.5 | – | 80.6 |
| ClCCN1CCOC1=Nc1ccc2c(c1)CCCC2 | – | 25 | 42.3 | 26.8 | 30.7 | 33.1 | 32.3 | 41.4 | 23 | 31.9 | 17.9 | 39.1 | 74.9 | 17.8 | 61.2 | 41.1 | 28.6 | 13.2 | 61.8 | 30.1 |
| O=C1C(C(c2ccccc2)N2CCOCC2)=C(O)C(c2ccccc2)N1c1ccccc1 (stereo not given) | > 10 | > 10 | > 10 | > 10 | – | > 10 | > 10 | – | > 10 | > 10 | > 10 | > 10 | > 10 | > 10 | > 10 | > 10 | > 10 | > 10 | > 10 | > 10 |
| CCOC(=O)N(c1ccccc1)c1cc(=O)n2ccccc2n1 | > 100 | > 100 | > 100 | > 100 | – | > 100 | > 100 | > 100 | – | > 100 | > 100 | > 100 | > 100 | > 100 | > 100 | > 100 | > 100 | > 100 | > 100 | > 100 |
